Experimental data published in PubChem BioAssay AID1745844 (Carcinogenic Potency Database (CPDB), 2022).

Tested on: rodent lifetime carcinogenesis bioassay, tumor incidence TD50
Experiment: chronic cancer bioassays in animals – CPDB, compiled studies (AID 1745844)
Conditions: rat, strain Fischer 344, males, in drinking water, dosed 88 weeks, study length 92 weeks

For `COc1cc(-c2ccc(N)c(OC)c2)ccc1N`, the TD50 (site: adrenal medulla, lesion: pheochromocytoma benign, bilateral + pheochromocytoma, malignant + pheochromocytoma, benign) was 2.11 mg/kg/day, the TD50 (site: all sites + colon, ascending + cecum + colon + colon, descending + duodenum + ileum + jejunum + liver + palate + pharynx + preputial gland + rec, lesion: mesothelioma, benign + mesothelioma, malignant + adenomatous polyp + mucinous cystadenocarcinoma + adenocarcinoma + hepatocellular) was 0.677 mg/kg/day and the TD50 (site: all sites, lesion: mesothelioma, benign + mesothelioma, malignant) was 27.4 mg/kg/day. The TD50 (site: all sites, lesion: mononuclear-cell leukemia) was 2.5 mg/kg/day, the TD50 (site: any site (literature study), lesion: several types, types named in the paper) was 0.565 mg/kg/day and the TD50 (site: brain + cerebellum, cerebrum + cerebrum + cerebellum, lesion: astrocytoma, malignant) was 10.9 mg/kg/day. The TD50 (site: cecum + colon + colon, descending + rectum, lesion: mucinous cystadenocarcinoma + adenocarcinoma) was 38 mg/kg/day, the TD50 (site: colon, ascending + cecum + colon + colon, descending + rectum, lesion: adenomatous polyp + mucinous cystadenocarcinoma + adenocarcinoma) was 9.91 mg/kg/day and the TD50 (site: colon, ascending + colon, descending + rectum, lesion: adenomatous polyp) was 13.6 mg/kg/day. It also gave a TD50 (site: duodenum + ileum + jejunum, lesion: adenocarcinoma + mucinous cystadenocarcinoma) of 8.44 mg/kg/day, a TD50 (site: liver, lesion: hepatocellular adenoma + hepatocellular carcinoma + neoplastic nodule) of 7.8 mg/kg/day and a TD50 (site: liver, lesion: hepatocellular carcinoma + neoplastic nodule) of 7.8 mg/kg/day. The TD50 (site: liver, lesion: neoplastic nodule) was 12.4 mg/kg/day, the TD50 (site: palate + pharynx + tongue, lesion: squamous-cell carcinoma + squamous-cell papilloma) was 4.22 mg/kg/day and the TD50 (site: palate, lesion: squamous-cell carcinoma + squamous-cell papilloma) was 8.21 mg/kg/day. It also gave a TD50 (site: palate, lesion: squamous-cell papilloma) of 8.35 mg/kg/day, a TD50 (site: pharynx + tongue, lesion: squamous-cell papilloma) of 4.49 mg/kg/day and a TD50 (site: preputial gland, lesion: adenoma + adenoma, bilateral + carcinoma + carcinoma, bilateral) of 1.78 mg/kg/day. The TD50 (site: preputial gland, lesion: adenoma + adenoma, bilateral) was 3.28 mg/kg/day, the TD50 (site: preputial gland, lesion: carcinoma + carcinoma, bilateral) was 4.65 mg/kg/day and the TD50 (site: skin, lesion: basal-cell adenoma + basal-cell carcinoma + sebaceous gland carcinoma + sebaceous adenoma) was 0.767 mg/kg/day. The TD50 (site: skin, lesion: basal-cell adenoma + basal-cell carcinoma) was 0.77 mg/kg/day, the TD50 (site: skin, lesion: basal-cell adenoma + sebaceous adenoma) was 0.785 mg/kg/day and the TD50 (site: skin, lesion: basal-cell adenoma) was 0.789 mg/kg/day. The TD50 (site: skin, lesion: basal-cell carcinoma + sebaceous gland carcinoma) was 6.5 mg/kg/day, the TD50 (site: skin, lesion: basal-cell carcinoma) was 6.55 mg/kg/day and the TD50 (site: skin, lesion: keratoacanthoma) was 9.13 mg/kg/day. It also gave a TD50 (site: skin, lesion: sebaceous gland carcinoma + sebaceous adenoma) of 24.6 mg/kg/day, a TD50 (site: skin, lesion: squamous-cell carcinoma + squamous-cell papilloma) of 2.01 mg/kg/day and a TD50 (site: skin, lesion: squamous-cell carcinoma) of 2.35 mg/kg/day. It also gave a TD50 (site: skin, lesion: squamous-cell papilloma) of 6.6 mg/kg/day, a TD50 (site: subcutaneous tissue, lesion: fibroma + neurofibroma) of 5.19 mg/kg/day and a TD50 (site: subcutaneous tissue, lesion: fibroma) of 13.9 mg/kg/day. The TD50 (site: subcutaneous tissue, lesion: fibrosarcoma + fibroma + neurofibroma + sarcoma) was 6.49 mg/kg/day, the TD50 (site: subcutaneous tissue, lesion: fibrosarcoma + fibroma) was 13.6 mg/kg/day and the TD50 (site: testis, lesion: interstitial-cell adenoma, bilateral + interstitial-cell adenoma) was 0.612 mg/kg/day. It also gave a TD50 (site: thyroid gland, lesion: c-cell adenoma + c-cell carcinoma) of 4.7 mg/kg/day, a TD50 (site: thyroid gland, lesion: c-cell adenoma) of 6.92 mg/kg/day and a TD50 (site: tongue, lesion: squamous-cell carcinoma + squamous-cell papilloma) of 8.25 mg/kg/day. For the same compound, the TD50 (site: tongue, lesion: squamous-cell papilloma) was 9.16 mg/kg/day.
